Among the data in ChEMBL document CHEMBL3507680, “University of Dundee, Gates Library screen for HepG2 cell viability” are cytotoxicity values, retold here.

The nature of the data set: Human HepG2 cell viability assay in 384 well format. The data set is classed as toxicity, cell-based. Details: dose 125 nL, time 70.5 hour; concentration not given beside the values. As to conditions: HepG2 cells, read-out: Inhibition.
As to `N#CC(NC(=O)CCCOc1cccnc1)c1ccccc1Cl` (stereo not given), the cytotoxicity at 70.5 h was -3.34%.

Turning to `Cc1cc(CN2CCN(C(C)C(=O)NCc3cccs3)CC2)no1` (stereo not given), the cytotoxicity at 70.5 h is -2.27%.

Consider `Cc1cc(CN(C)Cc2ncc(C(C)(C)C)o2)no1`, for which the cytotoxicity at 70.5 h was determined as 18.2%.

Take `Cc1cc(C2CCC2)nc(N2CC(n3cccn3)C2)n1`: the cytotoxicity at 70.5 h is -4.39%.

Turning to `CC(C)c1nc(C2CCCN2Cc2cc(=O)n(C)c(=O)n2C)no1` (stereo not given), the cytotoxicity at 70.5 h was -4.31%.

As for `CCN1C(=O)CC[C@@H]2[C@H]1CCN2S(=O)(=O)Cc1ccc(C)cc1`, the cytotoxicity at 70.5 h is -0.603%.

Consider `COCCN(Cc1cnn(C)c1)C(=O)C1CCCN(C2CCOCC2)C1` (stereo not given), for which the cytotoxicity at 70.5 h is -12.6%.

With `CC(NCc1cc(O)c2cccc(F)c2n1)c1ccccc1O` (stereo not given), the cytotoxicity at 70.5 h is -10.4%.

`CCCNC(=O)C1CCCN(c2ccc3nncn3n2)C1` (stereo not given): the cytotoxicity at 70.5 h is -4.72%.

For `CC(C)c1nnc2n1CCN(CCC(=O)N1CCc3ccccc31)C2`, the cytotoxicity at 70.5 h was -5.29%.

For `COC1CCC(N(C)c2ccnc(N(C)C)n2)CC1` (stereo not given), the cytotoxicity at 70.5 h is -7.23%.

For `CC(C)(C)c1c[nH]c([C@@H]2COCCN2C2CCC2)n1`, the cytotoxicity at 70.5 h is -4.17%.

Consider `Cc1ccccc1OC1CCN(CC(=O)Nc2c(C)nn(C)c2C)CC1`, for which the cytotoxicity at 70.5 h came to 1.35%.

For `CCn1cnnc1CCNC(=O)CCNC(=O)c1ccccc1F`, the cytotoxicity at 70.5 h was -6.14%.

As for `COc1ccc(C2CC(=O)Oc3cc(C)[nH]c(=O)c32)cc1O` (stereo not given), the cytotoxicity at 70.5 h was -19.6%.

As for `Cn1cc(CC(=O)N2CCCC(c3cc(C(F)(F)F)[nH]n3)C2)cn1` (stereo not given), the cytotoxicity at 70.5 h is 15.9%.

For the compound `CC(C)COc1cncc(NC(CO)c2ccco2)n1` (stereo not given), the cytotoxicity at 70.5 h was 11.4%.

Regarding `O=C(c1cccc2c1OCCO2)N1CCCC1c1noc(C2CC2)n1` (stereo not given), the cytotoxicity at 70.5 h is -2.14%.

For the compound `O=C(CSc1ccncc1)NC1CC(=O)N(CCc2ccccc2)C1` (stereo not given), the cytotoxicity at 70.5 h is -8.43%.

In the case of `COCC(=O)N1CCCCC1c1ccnc(Nc2cnccn2)n1` (stereo not given), the cytotoxicity at 70.5 h was -7.98%.

In the case of `c1cncc(-n2cnnc2CC2CCNCC2)c1`, the cytotoxicity at 70.5 h is -0.719%.

As for `CCC(NC(=O)NCc1nncn1CC)c1ccc(OC)cc1` (stereo not given), the cytotoxicity at 70.5 h is -9.27%.

For the compound `CC(NC(=O)C1CCCCC1)c1cc(O)nc(-c2cccnc2)n1` (stereo not given), the cytotoxicity at 70.5 h was -4.35%.

Turning to `COc1ccc(-c2ccc(C(=O)N3CCOCC3CC(=O)O)o2)cc1` (stereo not given), the cytotoxicity at 70.5 h is -3.78%.

With `Cc1ccc(-c2ncc(C(=O)N3CCN4CCCCC4C3)c(O)n2)cc1` (stereo not given), the cytotoxicity at 70.5 h is -4.08%.

As to `CC1c2ncc(Cn3cccn3)n2CCN1S(C)(=O)=O` (stereo not given), the cytotoxicity at 70.5 h turned out to be 19.8%.

Regarding `CCO[C@@H]1CCN(C(=O)c2ccc[nH]2)[C@@H]1Cc1cccnc1`, the cytotoxicity at 70.5 h was -6.51%.

Turning to `CCc1noc(C(C)N2CCN(CC(=O)N3CCOCC3)CC2)n1` (stereo not given), the cytotoxicity at 70.5 h was -4.7%.

As to `CCn1ccnc1CN1CCC(N(C)Cc2ncc(C)o2)C1` (stereo not given), the cytotoxicity at 70.5 h was 20.1%.

Turning to `CN1CCC(NC(=O)NCCNc2ccccn2)CC1`, the cytotoxicity at 70.5 h is -13.1%.

As to `COc1ccc2c(c1)C(=O)NC1(CC2)CCN(Cc2ccc(F)cc2)C1` (stereo not given), the cytotoxicity at 70.5 h amounted to 5.75%.

Take `O=C(Cn1ccc2ncccc2c1=O)N1CCSCC1`: the cytotoxicity at 70.5 h was found to be 29.2%.

In the case of `CN1CCC(N(CCc2ccccc2)C(=O)c2ccoc2)CC1`, the cytotoxicity at 70.5 h is -7.47%.

On to `CN(C)CCOCC1CN(C(=O)c2ccsc2)Cc2ccnn2C1` (stereo not given), for which the cytotoxicity at 70.5 h was -5.3%.

On to `Cc1cccc(CN(Cc2ccccc2)Cc2nccs2)n1`, for which the cytotoxicity at 70.5 h was -11.1%.

For `O=C(CCn1ccnn1)N1CCCC(n2cncn2)C1` (stereo not given), the cytotoxicity at 70.5 h was -6.6%.

`CN1CCN(c2cc(CNC(=O)Cn3cccn3)ccn2)CC1`: the cytotoxicity at 70.5 h came to 13.6%.

Consider `COc1cc(F)c(CN2CCN(CC(C)C)C(=O)C2C)cc1OC` (stereo not given), for which the cytotoxicity at 70.5 h is -1.44%.

As to `COc1ncc(C(=O)N2CCC(c3nc(C)n4ccsc34)CC2)cn1`, the cytotoxicity at 70.5 h turned out to be 24.2%.

In the case of `CNC(=O)[C@@H](C)NC(=O)c1cc(-c2ccc(F)cc2)c(C)s1`, the cytotoxicity at 70.5 h was -3.7%.

Turning to `Cc1cccc(C2(NC(=O)CCCn3cncn3)CCCC2)c1`, the cytotoxicity at 70.5 h is -5.53%.

`CC(C)c1nnc2n1CCN(C(=O)CN1CCc3sccc3C1)C2`: the cytotoxicity at 70.5 h is -4.56%.

In the case of `COCc1cc(CN(C)C(C(=O)O)c2cc(C)c(OC)c(C)c2)n[nH]1` (stereo not given), the cytotoxicity at 70.5 h is -2.3%.

For `Cc1ccc(CN(C)C(=O)C(C)n2cncn2)o1` (stereo not given), the cytotoxicity at 70.5 h was -4.1%.

In the case of `NC1(c2nc(-c3ccccc3)cc(=O)[nH]2)CCCC1`, the cytotoxicity at 70.5 h stood at 13.8%.

With `COc1ncccc1-c1cc(C(=O)NC2CC2)ccn1`, the cytotoxicity at 70.5 h is -8.1%.

On to `CCNC(=O)N1CCC2(CC1)CCn1c(-c3ccccc3)cnc12`, for which the cytotoxicity at 70.5 h is -3.37%.

With `Cc1ccccc1CN(CCN(C)C)Cc1ccccc1C(=O)O`, the cytotoxicity at 70.5 h is -7.13%.

On to `CCS(=O)(=O)N1Cc2ncn(CC3CC3)c2C(COC)C1` (stereo not given), for which the cytotoxicity at 70.5 h is -0.679%.

For `COCCNC(=O)CNC(=O)c1nc(Cc2c(Cl)cccc2Cl)no1`, the cytotoxicity at 70.5 h was -8.7%.

As for `CN(Cc1ccccc1C#N)C1CCN(CCc2ccccn2)CC1`, the cytotoxicity at 70.5 h is -3.57%.

For the compound `Cc1cc(=O)n(CCNS(=O)(=O)c2cccc(C(F)(F)F)c2)cn1`, the cytotoxicity at 70.5 h was -8.24%.

In the case of `CC(=O)N1CCOC(c2cncc(CCC(N)=O)n2)C1` (stereo not given), the cytotoxicity at 70.5 h came to 7.13%.

Regarding `Cc1noc(C)c1CNCC1CCCN1c1cccnn1` (stereo not given), the cytotoxicity at 70.5 h stood at 22.6%.

On to `CCCn1cnc2c1CN(S(=O)(=O)Cc1ccccc1)[C@H](C(=O)OC)C2`, for which the cytotoxicity at 70.5 h is 0.651%.

In the case of `CNc1cncc(C2CCN(S(C)(=O)=O)CC2)n1`, the cytotoxicity at 70.5 h was -2.96%.

As for `NS(=O)(=O)CCNC(=O)c1nnn(-c2ccccc2)c1C1CC1`, the cytotoxicity at 70.5 h is -2.47%.

Consider `COc1ccc2c(c1)NC(C1CCN(C(=O)C(C)C)CC1)NS2(=O)=O` (stereo not given), for which the cytotoxicity at 70.5 h was -3.05%.

Regarding `Cc1cnc(C)c(N2CCC3(CCCN(C4CCOCC4)C3=O)C2)n1` (stereo not given), the cytotoxicity at 70.5 h was -8.78%.

Consider `CCn1cc2c(n1)C(COC)CN(C(=O)c1ccccn1)C2` (stereo not given), for which the cytotoxicity at 70.5 h was -9.71%.

Regarding `Cc1cc(N2CCCC(c3[nH]ncc3Cc3ccccc3)C2)nc(N)n1` (stereo not given), the cytotoxicity at 70.5 h was found to be 11.1%.

In the case of `CCn1cc(NC(=O)c2cc(C)nc(N3CCOCC3)n2)cn1`, the cytotoxicity at 70.5 h was -10.6%.

In the case of `CC(C)c1cc(NCC2(N3CCOCC3)CCCCC2)ncn1`, the cytotoxicity at 70.5 h turned out to be 45.2%.

For the compound `CCc1oc(C(=O)N2CC[C@H]3CC[C@@H](C2)N3)cc1CN(CC)CC`, the cytotoxicity at 70.5 h is -8.75%.

Turning to `COCc1ccccc1NC(=O)[C@@H]1CCCN1C(=O)c1ccco1`, the cytotoxicity at 70.5 h was -8.02%.

Regarding `Cc1nc(C)c(C(=O)NCc2nc3cccc(C)c3n2C)o1`, the cytotoxicity at 70.5 h is -0.751%.

On to `CCC(C)Oc1cc(C(=O)Nc2nnc(C(C)C)[nH]2)ccn1` (stereo not given), for which the cytotoxicity at 70.5 h came to 3.52%.

For `CCOc1ncccc1CNc1nnc(C)c(C)c1C#N`, the cytotoxicity at 70.5 h is -0.879%.

On to `CCn1nccc1S(=O)(=O)N1CCC2(CCCN(C(C)C)C2=O)C1` (stereo not given), for which the cytotoxicity at 70.5 h is -14.6%.

In the case of `CCOC(=O)C1CCN(Cc2c(O)ccc3oc4c(c23)CCCC4)CC1`, the cytotoxicity at 70.5 h amounted to 11.2%.

For the compound `COc1cccc(S(=O)(=O)NC(=O)CCC2CCCO2)c1` (stereo not given), the cytotoxicity at 70.5 h came to 1.07%.

Regarding `CCc1nc(CCNC(=O)NC2CC(=O)N(C(C)(C)C)C2)cs1` (stereo not given), the cytotoxicity at 70.5 h was -5.26%.

For `CC(C)c1ccc(/C=C/CC(=O)NC2CCS(=O)(=O)CC2)cc1`, the cytotoxicity at 70.5 h was -1.79%.

Regarding `COc1ccc(C(C)NCc2c[nH]nc2C)cc1OC` (stereo not given), the cytotoxicity at 70.5 h was -8.7%.

With `O=C(c1cc(F)cc(Cl)c1)N1C[C@@H]2CC[C@H](C1)N(Cc1ccccc1)C2`, the cytotoxicity at 70.5 h was -3.75%.

Consider `CN(C)c1ccc(NC(=O)NCc2ccccn2)cn1`, for which the cytotoxicity at 70.5 h is -13.6%.

As for `c1cnnc(N2CCCC2CNc2ncnc3c2CCC3)c1` (stereo not given), the cytotoxicity at 70.5 h was -2.98%.

As for `CC(C)CCN1C2(CCN(C(=O)N(C)C)C2)c2ccccc2S1(=O)=O` (stereo not given), the cytotoxicity at 70.5 h is -17.2%.

`O=C1N(c2cccnc2)CCC12CCCN(Cc1ccoc1)C2` (stereo not given): the cytotoxicity at 70.5 h was -4.21%.

For `Cc1ccccc1-n1cnnc1SCC1CCCCO1` (stereo not given), the cytotoxicity at 70.5 h is -9.11%.

`Cc1nc(NCc2ccc(C)o2)cc(C2CCNCC2)n1`: the cytotoxicity at 70.5 h was -23.6%.

With `CN(CCO)Cc1nnc(C2CCN(C3CCCCC3)CC2)n1C`, the cytotoxicity at 70.5 h is -14.7%.

As to `NC(=O)Cn1ccnc1C1CCCN(Cc2nc3ccccc3s2)C1` (stereo not given), the cytotoxicity at 70.5 h is -7.02%.

On to `O=C(N1CCOCC1)n1cnc2ccccc21`, for which the cytotoxicity at 70.5 h was -11.5%.

Regarding `CCc1cccc(C)c1NC(=O)C1CC(=O)N(Cc2ccccn2)C1` (stereo not given), the cytotoxicity at 70.5 h was -3.75%.

`CCNC(=O)CN1CCCN(C(=O)C2CCCc3[nH]ncc32)CC1` (stereo not given): the cytotoxicity at 70.5 h was -8.68%.

Turning to `c1cnc(NC[C@H]2OC[C@@H]3CCN(Cc4ccsc4)C[C@@H]32)nc1`, the cytotoxicity at 70.5 h is -6.36%.

Consider `CC(C)n1[nH]c(=O)c2c1NC(=O)CC2c1ccc(C#N)cc1` (stereo not given), for which the cytotoxicity at 70.5 h came to 18.7%.

On to `COC(=O)[C@@H]1Cc2ncn(C)c2CN1S(=O)(=O)c1ccc(C)cc1`, for which the cytotoxicity at 70.5 h was -8.32%.

On to `COC[C@H]1CC[C@H]2[C@H](CCN2S(=O)(=O)c2ccccc2)O1`, for which the cytotoxicity at 70.5 h was 5.05%.

Consider `Cc1nc(C(=O)NCc2ccc(N3CCNC(=O)C3)c(F)c2)cs1`, for which the cytotoxicity at 70.5 h was -5.54%.

For the compound `Cc1cc(CN2CCCC2Cn2cncn2)no1` (stereo not given), the cytotoxicity at 70.5 h amounted to 26.7%.

In the case of `O=C1N(CC2CC2)C(c2c[nH]nc2-c2cccnc2)NC12CCCC2` (stereo not given), the cytotoxicity at 70.5 h is -12.7%.

Regarding `CS(=O)(=O)c1ccc(-c2cnc(C3CCCN3)cn2)cc1` (stereo not given), the cytotoxicity at 70.5 h was -11.3%.

On to `COc1ncccc1CNC1CCc2c(ccc(=O)n2CC2CC2)C1` (stereo not given), for which the cytotoxicity at 70.5 h is -8.76%.

With `Cc1oc(-c2cccc(F)c2F)nc1CN(CCO)C(C)C`, the cytotoxicity at 70.5 h is -8.53%.

Turning to `Cc1ccc2nc(CN3CCN(C4CCCCC4)C(=O)C3)cc(O)c2c1`, the cytotoxicity at 70.5 h is -0.969%.

`Cc1ccc(CNC(=O)NC2CCC(O)CC2)c(N2CCCC2)c1` (stereo not given): the cytotoxicity at 70.5 h was -10.5%.

As to `Cc1ccc(NC(=O)CN2CCOCC2)c(F)c1`, the cytotoxicity at 70.5 h came to 21.2%.

On to `CN(C)C(CNC(=O)NCCOc1ccccc1)c1ccco1` (stereo not given), for which the cytotoxicity at 70.5 h was found to be 13%.
